Among the test systems are SNB-19; OVCAR-8; SF-539; Hs-578T; UACC-62; MCF7; M14; SF-295; HCT-15; HCT-116; UACC-257; RXF 393; SNB-75; IGROV-1; 786-0; T47D; PC-3; NCI/ADR-RES; U-251.
Holding throughout (experiment): inhibition of tumour cell growth, NCI panel, 48 h

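All cell lines were grown in 96-well plates and treated with compound for 48 hours. At the GI50, growth is halved.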 Activity calls are given as the source filed them. Cut-off read from the data, not from the text of the source: active = GI50 up to about 1.1 µM and inactive = higher. Bounds are passed on as bounds.

As for `N=C(N)NC(CC(=O)O)c1ccccc1` (centres undefined), the GI50 in the assay on SNB-19, in the assay on OVCAR-8, with SF-539, in the assay on Hs-578T, with UACC-62 and in the assay with MCF7 was > 100 µM (inactive) in each case. For the same compound, the GI50 is > 100 µM (inactive) in the assay on M14; > 100 µM (inactive) in the assay on SF-295; greater than 100 µM with HCT-15; > 100 µM (inactive) in the assay on HCT-116; > 100 µM (inactive) in the assay with UACC-257; > 100 µM (inactive) in the assay on RXF 393. The GI50 in the assay with SNB-75, with IGROV-1, in the assay on 786-0, with T47D, with PC-3 and in the assay on NCI/ADR-RES was > 100 µM (inactive) throughout. The GI50 in the assay on U-251 is > 100 µM (inactive).
As to `COc1ccc(N2CN3OC(=O)N(c4ccc(OC)cc4)[C@@]3(c3ccccc3)C2)cc1`, the GI50 with SNB-19 is 44 µM (inactive); with OVCAR-8 it was 33.3 µM (inactive); in the assay on SF-539 it was 17 µM (inactive); in the assay on Hs-578T it was 37.6 µM (inactive); with UACC-62, 13.6 µM (inactive); in the assay with MCF7 it was 16.9 µM (inactive). Also, the GI50 in the assay with M14 was 34.4 µM (inactive); with SF-295, 16.5 µM (inactive); in the assay on HCT-15, 5.18 µM; in the assay on HCT-116 it was 18.7 µM (inactive); with UACC-257, 26.5 µM (inactive); with RXF 393, 19.9 µM (inactive). Moreover, the GI50 with SNB-75 is 14.4 µM (inactive); in the assay on IGROV-1 it was 20.7 µM (inactive); in the assay with 786-0 it was 51.1 µM (inactive); in the assay on T47D, 14.3 µM (inactive); in the assay with PC-3, 10.8 µM (inactive); with NCI/ADR-RES, 9.48 µM (inactive). Further, in the assay with U-251, the GI50 was 11.9 µM (inactive).
Take `COC(=O)[C@]1(C)CCC[C@@]2(C)C1CC[C@]13C=C(C(C)C)[C@H](CC21)CC3(Cl)C#N` (some centres undefined): the GI50 was > 100 µM (inactive) in the assay on SNB-19; 45.9 µM (inactive) in the assay on OVCAR-8; 78 µM (inactive) in the assay on SF-539; > 100 µM (inactive) in the assay with Hs-578T; 37.7 µM (inactive) with UACC-62; 27.4 µM (inactive) in the assay on MCF7. The GI50 with M14 is 38.4 µM (inactive); in the assay with SF-295, 41.4 µM (inactive); with HCT-15, 44.7 µM; with HCT-116 it was 14.9 µM (inactive); with UACC-257, 27.7 µM (inactive); in the assay on RXF 393 it was 24.8 µM (inactive). For the same compound, the GI50 in the assay on SNB-75 is 4.24 µM (inactive); with IGROV-1, > 100 µM (inactive); with 786-0, > 100 µM (inactive); with T47D, 14.1 µM (inactive); in the assay with PC-3, 18.9 µM (inactive); in the assay with NCI/ADR-RES it was 57.7 µM (inactive). Further, in the assay with U-251, the GI50 is 19.8 µM (inactive).
`O=[N+]([O-])c1cccc2nccc(NCCN3CCOCC3)c12`: the GI50 in the assay on SNB-19 was 25.7 µM (inactive); with OVCAR-8, 20.1 µM (inactive); in the assay on SF-539, 20.3 µM (inactive); in the assay on Hs-578T, 15.9 µM (inactive); in the assay on UACC-62, > 10 µM (inactive); with MCF7, 9.46 µM (inactive). Further, the GI50 was 15.9 µM (inactive) with M14; 13.9 µM (inactive) in the assay on SF-295; 9.35 µM with HCT-15; 13.4 µM (inactive) in the assay with HCT-116; 10 µM (inactive) in the assay on UACC-257; 11.6 µM (inactive) with RXF 393. Moreover, the GI50 was 16.5 µM (inactive) in the assay on SNB-75; 17.4 µM (inactive) in the assay on IGROV-1; 25.2 µM (inactive) with 786-0; 23 µM (inactive) with T47D; 9.64 µM (inactive) in the assay with PC-3; 29.4 µM (inactive) in the assay on NCI/ADR-RES. Moreover, in the assay on U-251, the GI50 was 22.2 µM (inactive).
As for `CC1(O)CC(=O)c2c(cc3ccc(-c4c5c(c(O)c6c(O)cccc46)C(=O)CC(C)(O)C5)c(O)c3c2O)C1` (centres undefined), the GI50 in the assay on SNB-19 was 0.18 µM (active); in the assay on OVCAR-8, 0.332 µM (active); in the assay with SF-539, 0.174 µM (active); in the assay on Hs-578T, 0.265 µM (active); with UACC-62, 1.46 µM (inactive); with MCF7, 0.199 µM (active). In addition, the GI50 with M14 was 0.406 µM (active); with SF-295, 0.179 µM (active); in the assay with HCT-15, 0.09 µM; with HCT-116, 0.0647 µM (active); in the assay with UACC-257, 0.324 µM (active); in the assay with RXF 393, < 0.01 µM (active). Also, the GI50 in the assay on SNB-75 is 0.129 µM (active); in the assay with IGROV-1, 0.348 µM (active); in the assay with 786-0 it was 0.435 µM (active); in the assay with T47D it was 0.562 µM (active); in the assay with PC-3 it was 0.0834 µM (active); in the assay on NCI/ADR-RES, 0.441 µM (active). Also, the GI50 with U-251 was 0.06 µM (active).
In the case of `N=C(N)NS(=O)(=O)c1ccc(NC(=O)c2ccc3nc4ccccc4c(Nc4ccc(S(N)(=O)=O)cc4)c3c2)cc1`, the GI50 in the assay with SNB-19, in the assay on OVCAR-8, with SF-539, in the assay on Hs-578T, in the assay with UACC-62 and in the assay with MCF7 was > 100 µM (inactive) in each case. Also, the GI50 with M14 was > 100 µM (inactive); in the assay on SF-295, > 100 µM (inactive); with HCT-15 it was greater than 100 µM; in the assay on HCT-116, > 100 µM (inactive); with UACC-257, > 100 µM (inactive); with RXF 393, > 100 µM (inactive). Moreover, the GI50 in the assay on SNB-75, with IGROV-1, in the assay on 786-0, in the assay on T47D, in the assay on PC-3 and in the assay on NCI/ADR-RES was > 100 µM (inactive) throughout. Also, the GI50 with U-251 was > 100 µM (inactive).
For the compound `Cc1ccc(C)c(/C(=N\N=C(N)N)C2CC2)c1`, the GI50 in the assay with SNB-19 is 48.9 µM (inactive); in the assay with OVCAR-8, 46.6 µM (inactive); in the assay on SF-539 it was 32.3 µM (inactive); in the assay on Hs-578T, 26.1 µM (inactive); in the assay with UACC-62, 35.6 µM (inactive); in the assay with MCF7, 47.8 µM (inactive). In addition, the GI50 is 39.6 µM (inactive) in the assay with M14; 42.6 µM (inactive) in the assay with SF-295; 48.6 µM with HCT-15; 26.4 µM (inactive) in the assay on HCT-116; 31.6 µM (inactive) in the assay with UACC-257; > 100 µM (inactive) in the assay on RXF 393. Also, the GI50 is 37.5 µM (inactive) with SNB-75; 32.7 µM (inactive) with IGROV-1; 37 µM (inactive) in the assay on 786-0; 45.5 µM (inactive) with T47D; 48.5 µM (inactive) in the assay with PC-3; 58.1 µM (inactive) with NCI/ADR-RES. Moreover, the GI50 with U-251 was 17.4 µM (inactive).
As for `CCNc1cc2c3c(c1)CCCN3CCC2`, the GI50 was 16 µM (inactive) in the assay on SNB-19; 21.2 µM (inactive) in the assay with OVCAR-8; 20.9 µM (inactive) with SF-539; 25.6 µM (inactive) with Hs-578T; 17.7 µM (inactive) in the assay with UACC-62; 40.7 µM (inactive) with MCF7. In addition, the GI50 with M14 was 26.4 µM (inactive); in the assay with SF-295, 18.2 µM (inactive); in the assay with HCT-15, 19.6 µM; in the assay with HCT-116, 6.67 µM (inactive); with UACC-257, 19.7 µM (inactive); with RXF 393 it was 72.8 µM (inactive). The GI50 is 18.1 µM (inactive) in the assay on SNB-75; 15.6 µM (inactive) in the assay with IGROV-1; 9.66 µM (inactive) in the assay with 786-0; 18.1 µM (inactive) in the assay with T47D; 16.7 µM (inactive) with PC-3; 21 µM (inactive) in the assay on NCI/ADR-RES. For the same compound, the GI50 with U-251 was 12.3 µM (inactive).
Take `N#CCCC1(CCC#N)CCCCCCC(CCC#N)(CCC#N)C(=O)C1=O`: the GI50 in the assay on SNB-19 was > 100 µM (inactive); in the assay with OVCAR-8, > 100 µM (inactive); in the assay on SF-539, > 100 µM (inactive); with Hs-578T, > 100 µM (inactive); in the assay with UACC-62 it was > 100 µM (inactive); in the assay on MCF7, 70.5 µM (inactive). Also, the GI50 was > 100 µM (inactive) in the assay with M14; > 100 µM (inactive) with SF-295; greater than 100 µM with HCT-15; > 100 µM (inactive) in the assay with HCT-116; > 100 µM (inactive) in the assay with UACC-257; > 100 µM (inactive) in the assay with RXF 393. The GI50 was > 100 µM (inactive) in the assay on SNB-75; > 100 µM (inactive) with IGROV-1; > 100 µM (inactive) in the assay on 786-0; 11.9 µM (inactive) with T47D; > 100 µM (inactive) in the assay with PC-3; > 100 µM (inactive) in the assay on NCI/ADR-RES. In the assay on U-251, the GI50 was > 100 µM (inactive).
With `CCCC(CCC)C(=O)O` [VALPROIC ACID], the GI50 is > 100 µM (inactive) in the assay with SNB-19; 3920 µM (inactive) in the assay with OVCAR-8; 15200 µM (inactive) in the assay on SF-539; 12100 µM (inactive) in the assay with Hs-578T; 8810 µM (inactive) in the assay on UACC-62; 6580 µM (inactive) in the assay with MCF7. Further, the GI50 in the assay with M14 is > 100 µM (inactive); in the assay on SF-295, 7760 µM (inactive); in the assay with HCT-15 it was 8090 µM; with HCT-116, 9730 µM (inactive); with UACC-257 it was 4530 µM (inactive); in the assay on RXF 393, 2570 µM (inactive). Moreover, the GI50 was 6150 µM (inactive) with SNB-75; 5430 µM (inactive) in the assay with IGROV-1; > 100 µM (inactive) in the assay on 786-0; 7520 µM (inactive) in the assay on T47D; 16900 µM (inactive) with PC-3; 10900 µM (inactive) in the assay with NCI/ADR-RES. Further, the GI50 in the assay on U-251 is 8020 µM (inactive).
As to `CC(CC(=O)CO[C@H]1[C@H](O)[C@@H](O)[C@@H](O)[C@@H]2NC(=O)c3c(cc4c(c3O)OCO4)[C@H]21)OC1OC(CO)C(O)C(O)C1O` (some centres undefined), the GI50 in the assay on SNB-19 was 0.304 µM (active); in the assay on OVCAR-8, 0.313 µM (active); with SF-539, 0.419 µM (active); in the assay on Hs-578T, 0.4 µM (active); in the assay with UACC-62, 0.733 µM (active); with MCF7, 0.283 µM (active). The GI50 in the assay with M14 was 0.425 µM (active); with SF-295 it was 1.12 µM (active); in the assay on HCT-15, 0.396 µM; in the assay with HCT-116, 0.275 µM (active); in the assay on UACC-257, 0.594 µM (active); with RXF 393, 0.269 µM (active). Besides, the GI50 with SNB-75 was 0.207 µM (active); in the assay with IGROV-1, 0.547 µM (active); with 786-0 it was 0.451 µM (active); in the assay with T47D it was 0.203 µM (active); with PC-3 it was 0.338 µM (active); with NCI/ADR-RES, 0.543 µM (active). The GI50 in the assay on U-251 is 0.239 µM (active).
